Where two headings read alike, the source gives them in different places.
What was measured:
[1] = molecular target: PARP-1 enzyme (Homo sapiens, UniProt P09874); assay: In vitro scintillation proximity assay (SPA) for PARP-1 inhibitory activity; type: biochemical
Protocol: In Vitro Scintillation Proximity Assay (SPA) for PARP-1 Inhibitory Activity
Compounds of the present invention were tested in an in vitro assay based on SPA technology (proprietary to Amersham Pharmacia Biotech).
In principle, the assay relies upon the well established SPA technology for the detection of poly(ADP-ribosyl)ation of biotinylated target proteins, i.e histones. This ribosylation is induced using nicked DNA activated PARP-1 enzyme and [^3H]-nicotinamide adenine dinucleotide ([^3H]-NAD^+) as ADP-ribosyl donor.
As inducer of PARP-1 enzyme activity, nicked DNA was prepared. For this, 25 mg of DNA (supplier: Sigma) was dissolved in 25 ml DNAse buffer (10 mM Tris-HCl, pH 7.4; 0.5 mg/ml Bovine Serum Albumine (BSA); 5 mM MgCl2.6H2O and 1 mM KCl) to which 50 μl DNAse solution (1 mg/ml in 0.15 M NaCl) was added. After an incubation of 90 min. at 37° C., the reaction was terminated by adding 1.45 g NaCl, followed by a further incubation at 58° C. for 15 min. The reaction mixture was cooled on ice and dialysed at 4° C. for respectively 1.5 and 2 hours against 1.5 l of 0.2 M KCl, and twice against 1.5 l of 0.01 M KCl for 1.5 and 2 h respectively. The mixture was aliquoted and stored at −20° C. Histones (1 mg/ml, type II-A, supplier: Sigma) were biotinylated using the biotinylation kit of Amersham and stored aliquoted at −20° C. A stock solution of 100 mg/ml SPA poly(vinyl toluene) (PVT) beads (supplier: Amersham) was made in PBS. A stock solution of [^3H]-NAD^+ was made by adding 120 μl of [^3H]-NAD^+ (0.1 mCi/ml, supplier: NEN) to 6 ml incubation buffer (50 mM Tris/HCl, pH 8; 0.2 mM DTT; 4 mM MgCl2). A solution of 4 mM NAD^+ (supplier: Roche) was made in incubation buffer (from a 100 mM stock solution in water stored at −20° C.). The PARP-1 enzyme was produced using art known techniques, i.e. cloning and expression of the protein starting from human liver cDNA. Information concerning the used protein sequence of the PARP-1 enzyme including literature references can be found in the Swiss-Prot database under primary accession number P09874. Biotinylated histones and PVT-SPA beads were mixed and pre-incubated for 30 min. at room temperature. PARP-1 enzyme (concentration was lot dependent) was mixed with the nicked DNA and the mixture was pre-incubated for 30 min. at 4° C. Equal parts of this histones/PVT-SPA beads solution and PARP-1 enzyme/DNA solution were mixed and 75 μl of this mixture together with 1 μl of compound in DMSO and 25 μl of [^3H]-NAD^+ was added per well into a 96-well microtiterplate. The final concentrations in the incubation mixture were 2 μg/ml for the biotinylated histones, 2 mg/ml for the PVT-SPA beads, 2 μg/ml for the nicked DNA and between 5-10 μg/ml for the PARP-1 enzyme. After incubation of the mixture for 15 min. at room temperature, the reaction was terminated by adding 100 μl of 4 mM NAD^+ in incubation buffer (final concentration 2 mM) and plates were mixed.
The beads were allowed to sediment for at least 15 min. and plates transferred to a TopCountNXT™ (Packard) for scintillation counting, values were expressed as counts per minute (cpm). For each experiment, controls (containing PARP-1 enzyme and DMSO without compound), a blank incubation (containing DMSO but no PARP-1 enzyme or compound) and samples (containing PARP-1 enzyme and compound dissolved in DMSO) were run in parallel. All compounds tested were dissolved and eventually further diluted in DMSO. In first instance, compounds were tested at a concentration of 10^−5M. […] In each test, the blank value was subtracted from both the control and the sample values. The control sample represented maximal PARP-1 enzyme activity. For each sample, the amount of cpm was expressed as a percentage of the mean cpm value of the controls. […] Herein the effects of test compounds are expressed as pIC50 (the negative log value of the IC50-value).

[2] = [3H]-NAD+, biotinylated histones, nicked DNA, read-out: in vitro SPA assay PARP-1 pIC50 (converted)

PARP-1 enzyme, sequence (P09874 whole entry): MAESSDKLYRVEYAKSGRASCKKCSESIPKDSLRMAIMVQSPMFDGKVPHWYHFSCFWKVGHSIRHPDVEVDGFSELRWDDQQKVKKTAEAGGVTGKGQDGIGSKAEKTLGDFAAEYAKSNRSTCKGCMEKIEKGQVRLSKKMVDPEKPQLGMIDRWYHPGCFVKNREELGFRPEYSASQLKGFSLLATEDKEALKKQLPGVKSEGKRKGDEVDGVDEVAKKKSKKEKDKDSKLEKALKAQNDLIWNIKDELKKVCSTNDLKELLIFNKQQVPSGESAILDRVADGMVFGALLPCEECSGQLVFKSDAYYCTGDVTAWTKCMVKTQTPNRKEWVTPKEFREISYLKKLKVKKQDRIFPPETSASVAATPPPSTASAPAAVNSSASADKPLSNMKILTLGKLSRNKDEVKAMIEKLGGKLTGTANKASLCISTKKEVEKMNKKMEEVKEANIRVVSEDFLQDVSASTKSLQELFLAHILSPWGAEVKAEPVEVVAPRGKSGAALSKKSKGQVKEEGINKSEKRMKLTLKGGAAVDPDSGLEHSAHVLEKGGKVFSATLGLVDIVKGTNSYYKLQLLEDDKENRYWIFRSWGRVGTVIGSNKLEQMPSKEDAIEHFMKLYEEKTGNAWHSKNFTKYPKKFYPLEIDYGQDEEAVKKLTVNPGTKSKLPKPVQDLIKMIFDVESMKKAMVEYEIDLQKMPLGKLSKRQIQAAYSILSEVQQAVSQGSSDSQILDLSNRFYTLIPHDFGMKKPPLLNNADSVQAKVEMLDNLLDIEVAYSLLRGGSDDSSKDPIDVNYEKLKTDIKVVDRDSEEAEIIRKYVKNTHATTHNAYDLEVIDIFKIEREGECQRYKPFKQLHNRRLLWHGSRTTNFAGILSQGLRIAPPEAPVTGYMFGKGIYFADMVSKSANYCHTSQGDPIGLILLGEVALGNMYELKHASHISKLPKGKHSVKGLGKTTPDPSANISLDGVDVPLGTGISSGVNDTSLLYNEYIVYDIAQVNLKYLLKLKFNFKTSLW

IC50 [1, 2] [µM]	SMILES	melting point [°C]	IC50 [1] [µM]
0.359	O=c1[nH]c(=O)n(C2CCN(CC(O)C3CCc4ccccc4O3)CC2)c2ccccc12 (stereo in doubt) [Compound 9, 1-[1-[(2S)-2-[(2R)-3,4-dihydro-2H-1-benzopyran-2-yl]-2-hydroxyethyl]-4-piperidinyl]-2,4(1H,3H)-quinazolinedione]	–	–
0.257	O=C(CCCN1CCC(n2c(=O)[nH]c(=O)c3ccccc32)CC1)c1ccc(F)cc1 [Compound 2]	195	–
–	O=c1[nH]c(=O)n(CCCN2CCC(c3c[nH]c4ccccc34)CC2)c2ccccc12 [Compound 3]	216.8	0.136
0.348	O=c1[nH]c(=O)n(C2CCN(CCCn3c(=O)[nH]c4ccccc43)CC2)c2ccccc12 [Compound 5]	–	–
0.22	O=C(c1ccc(F)cc1)C1CCN(CCn2c(=O)[nH]c(=O)c3ccccc32)CC1 [Compound 10, 1-[2-[4-(4-fluorobenzoyl)-1-piperidinyl]ethyl]-2,4-(1H,3H)-quinazolinedione]	–	–
0.221	O=C(c1ccc(F)cc1)C1CCN(CCCn2c(=O)[nH]c(=O)c3ccccc32)CC1 [Compound 11, 1-[3-[4-(4-fluorobenzoyl)-1-piperidinyl]propyl]-2,4-(1H,3H)-quinazolinedione]	–	–

SMILES	IC50 [1, 2] [µM]	melting point [°C]	IC50 [1] [µM]
O=c1[nH]c(=O)n(C2CCNCC2)c2ccccc12 [Compound 1]	0.204	253.7	–
O=c1[nH]c(=O)n(CCN2CCC(O)(c3ccc(Cl)cc3)CC2)c2ccccc12 [Compound 6]	0.167	–	–
O=c1[nH]c(=O)n(CCCN2CCC(O)(c3ccc(Cl)cc3)CC2)c2ccccc12 [Compound 7]	0.292	–	–

From patent US9255080B2, “Quinazolinedione derivatives as PARP inhibitors” (Janssen Pharmaceutica NV, priority 2004, dated 2016)
